The results in this text go back to PubChem BioAssay (NCI).

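Cultured in 96-well plates, cells were exposed to test compound for 48 hours across five concentrations. GI50 is the concentration that inhibits growth by half. TGI is the concentration that stops growth completely.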 Where only a bound is given, the exact number is not on record here.

Assay in all cases: NCI tumour cell line growth inhibition, 48 h
Assay [1] has as its system DMS 273 small cell lung.
Assay [2] concerns RXF-631 renal.
Assay [3] deals with DLD-1 colon.
Assay [4] has as its system SN12K1 renal.
Assay [5] concerns KM20L2 colon.
Assay [6] deals with P388 leukemia.
For assay [7], the system named is DMS 114 small cell lung.
For assay [8], the system named is HOP-18 NSCLC.
The test system of assay [9] is P388/ADR leukemia.

As to `CC1=C(O)C(=O)C2C(=O)C1C1Cc3ccccc3C21` (centres undefined), the TGI in assay [1], in assay [2] and in [3] was over 100 µM each time.
Consider `CC(C)NC(=O)OCc1c(CO)c2c(n1C)-c1ccccc1CC2`, for which the TGI in [1] was 62.4 µM; in assay [4], 35.1 µM; in assay [3], 46.4 µM; in [5], over 84.5 µM; in [6] it was 32.7 µM; in assay [7], 40.7 µM. Also, the TGI came out at 70.1 µM in [8] and 53.9 µM in assay [9].
Take `COc1ccc(/C(Cl)=C(\C=N/O)c2ccc(OC)c(OC)c2)cc1OC`: the TGI in [1], in assay [3], in [5], in assay [7] and in assay [8] was over 100 µM in each case.
As for `Cc1c(N2CCN(C)CC2)nc2ccc(Cl)cc2c1-c1ccccc1`, the values for the TGI in [1], in [5] and in assay [7] were 32.1 µM, 31.2 µM and 31 µM, respectively.
Regarding `COc1ccc(-c2cc(=O)c3cc(OC)ccc3[nH]2)cc1`, the TGI in assay [3], in [5], in assay [7] and in assay [8] was over 100 µM throughout.
In the case of `COc1ccccc1-c1cc(=O)c2cc3c(cc2[nH]1)OCO3`, the TGI in [1] was over 100 µM; in assay [3] it was over 100 µM; in [5] it was 37.5 µM; in assay [7] it was over 100 µM. Moreover, the values for the GI50 in assay [5] and in [7] were 18.7 µM and 25 µM, respectively.
For `COC1C(O)C(n2ncc3c(SC)nc(SC)nc32)OC1C(O)CO` (centres undefined), the TGI is over 100 µM in [1]; over 67.4 µM in assay [4]; over 100 µM in assay [3]; over 100 µM in assay [5]; over 100 µM in assay [6]; over 100 µM in [7]. Also, the TGI in assay [8] and in assay [9] was over 100 µM each time.
Consider `CC(C)N=C(N)NC#N`, for which the TGI in assay [3], in [5], in assay [7] and in assay [8] was over 100 µM in each case.
For the compound `COC(=O)c1ccc(N=NN(C)COc2ccc(Br)cc2)cc1`, the TGI in assay [1], in assay [4], in assay [3], in assay [5], in assay [6] and in assay [7] was over 100 µM in each case. In addition, the TGI in assay [8] and in assay [9] was over 100 µM throughout.
For `Cc1cc(/C=C/c2cc[n+](C)c3ccccc23)c(O)c2ncccc12`, the TGI in assay [1] came out at 10.4 µM; in assay [3], 22.5 µM; in assay [5], 20 µM; in assay [7] it was 1.8 µM; in [8], 11.9 µM.
